Experimental data reported in patent publication US20240398783A1, “Compounds and Pharmaceutical Compositions Comprising Inhibitors of Amyloid Peptide Interactions with Glycosaminoglycans, Methods of Treatment and Use Thereof” (Gismo Therapeutics, Inc., priority 2021, published 2024).
Where a name gives a salt, the structure may show the parent alone. Read-outs that look alike come from different tables or passages of the source.

Key:
[1] = target: T1, Amyloid-beta(1-42) oligomer binding to heparin (HS-GAG) (Homo sapiens, UniProt P05067); test: Inhibition of Amyloid-beta(1-42) oligomer binding to immobilized heparin-BSA (ELISA); parameters: species or system porcine; settings: for inhibition at 30 µM: read-out: Abeta42/Heparin Activity (% inhibition class); for IC50: co-incubation on heparin-BSA plates, read-out: Abeta42/Heparin Activity (IC-50)
T1 construct: Beta-amyloid (1-42) was purchased from rPeptide (Cat. No. A1163); purchased rPeptide A1163
Experimental: (§1) Porcine intestinal mucosa heparin conjugated to Bovine Serum Albumin (Heparin-BSA) was prepared as described (Najjam, S. et al. 1997, Cytokine 12, 1013-1022). Heparin is a sulfated HS-GAG and is commonly used as a HS-GAG in biochemical and binding assays (Lindahl, U. and Kjellen, L. (2013) ibid). Heparin-BSA at 0.01 mg/ml in Phosphate Buffered Saline (PBS; pH 7.4) was added to a 96 well polystyrene ELISA plate (NUNC Cat. No. 449824; 100 μl per well) and incubated Over Night (ON) at 4 degrees Celsius. For negative controls, ELISA plates were coated with BSA instead of Heparin-BSA, using the same procedure. Following the incubation, the plate was washed consecutively, by immersion, with de-ionized water and PBS (pH 7.4). The ELISA plate was then blocked with nonfat milk (2%, 200 μl per well) for 2 hours at Room Temperature (RT) with gentle shaking. Following blocking, the plate was washed with de-ionized water then PBS (pH 7.4). GBAPs were dissolved and diluted in PBS (pH 6.5, supplemented with 0.1% BSA) at desired concentrations, added to the ELISA plates containing immobilized Heparin-BSA (100 μl per well) and incubated for 2 hours at RT with gentle shaking. Following incubation, the plate was washed with de-ionized water and three times with PBS (pH 6.5) plus Tween. Bound GBAP was detected by a monoclonal antibody specific for that GBAP, followed by incubation with secondary antibody conjugated to horseradish peroxidase (HRP). Antibody was diluted in PBS (pH 6.5 supplemented with 1% BSA). Following each incubation with antibody, the plate was washed with de-ionized water and three times with PBS (pH 6.5) wash buffer containing 0.1% Tween. The peroxidase substrate chromogen, TMB (Dako Cat. No. S1599) was added (100 μl per well) to the ELISA plate and incubated at room temperature. After 5 minutes ELISA Stop Solution (hydrochloric acid 1N, sulfuric acid 3N) was added (100 μl per well) to stop the peroxidase catalyzed colorimetric reaction. The Optical Density of the samples was measured at 450 nm using an ELISA plate reader (BioTek Synergy H1). Following color development, the % inhibition compared to control (BSA-coated plates) was determined. IC-50s were calculated using GraphPad Prism software.
The assay was performed as described in Example 43, with the following modifications. Following to coating the plates with Heparin-BSA, plates were washed as described. The compounds were dissolved in DMSO at 10 mM final concentration and further diluted prior to assay. DMSO concentration in the screening well was up to 2%. Individual compounds were co-incubated with Beta-amyloid peptides on plates containing immobilized heparin. Beta-amyloid (1-42) was purchased from rPeptide (Cat. No. A1163) and used to prepare oligomers according to Stine et al., 2003 (J Biol Chem. 278(13):11612-22) as follows. 1,1,1,3,3,3-Hexafluoro-2-propanol- (HFIP; Sigma Cat. No. 105228)-treated Beta amyloid (1-42) was dissolved in dry DMSO (Sigma Cat. No. D2650) to 5 mM concentration. Dissolved Beta amyloid (1-42) was then diluted to 100 μM in ice-cold cell culture medium (phenol red-free Ham's F-12; Caisson Labs, Cat. No. HFL05), followed immediately by vortexing for 30 seconds, and incubating at 4 degrees Celsius for 24 h. Resulting Beta amyloid (1-42) oligomers were centrifuged at 12,000 rpm for 10 min at 4 degree Celsius to remove aggregates. Oligomers were then quickly frozen and kept in aliquots at −80 degrees Celsius. Beta-amyloid (1-40) from rPeptide (Cat No. A1153) was dissolved in DMSO, quickly frozen and kept in aliquots at −80 degrees Celsius. Beta-amyloid (1-42) oligomers or Beta-amyloid (1-40) diluted in PBS (pH 6.5, supplemented with BSA, 0.1%) were added to the ELISA plate (100 μl per well) and incubated for 2 hours at RT with gentle shaking. Following the incubation, the plate was washed with de-ionized water and three times with PBS (pH 6.5) plus Tween. […]

[2] = target: Tau binding to heparin (HS-GAG) (Homo sapiens, UniProt P10636); test: Inhibition of Tau binding to immobilized heparin-BSA (ELISA); parameters: species or system porcine; settings: for inhibition at 30 µM: read-out: Tau/Heparin Activity (% inhibition class)
Experimental: as §1
The assay was performed as described in Example 43, with the following modifications. Following to coating the plates with Heparin-BSA, plates were washed as described. The compounds were dissolved in DMSO at 10 mM final concentration and further diluted prior to assay. DMSO concentration in the screening well was up to 2%. Individual compounds were co-incubated with Tau on plates containing immobilized heparin. Tau purchased from rPeptide (Cat. No. T1001) was dissolved in DMSO (Sigma Cat. No. D2650), quickly frozen and kept in aliquots at −80 degrees Celsius. Tau dissolved in PBS (pH 6.5, supplemented with BSA, 0.1%) was added to the ELISA plate (100 μl per well) and incubated for 2 hours at RT with gentle shaking. Following the incubation, the plate was washed with de-ionized water and three times with PBS (pH 6.5) plus Tween. Bound Tau was detected by anti-Tau Monoclonal Antibody D-8 (Santa Cruz Cat. No. sc-166060), followed by secondary anti-IgG antibody conjugated to HRP (R&D System, Cat. No. HAF007). Following to color development with TMB, as described in Example 43, the Optical Density of the samples was measured at 450 nm using an ELISA plate reader. Following color development, the % inhibition compared to control (no compound, DMSO control) for every compound was determined.
An example of inhibition curve is shown in FIG. 3 for Inhibitor Compounds 3 and 6. As described in Example 43, Heparin in the form of Heparin-BSA conjugate is used as a source of HS-GAG. For each compound IC-50 value in Tau—heparin-BSA binding assay is shown in […]. In some cases IC-50 was not measured and […] at 30 μM compound concentration is shown instead. […]

[3] = 30 μM compound, Abeta(1-42) oligomers, heparin-BSA
[4] = Tau/Heparin Activity (IC-50), Tau, heparin-BSA
[5] = Tau, heparin-BSA, read-out: Tau/Heparin Activity (IC-50)

Tau binding to heparin (HS-GAG), sequence (P10636 with tags, fused parts or gaps): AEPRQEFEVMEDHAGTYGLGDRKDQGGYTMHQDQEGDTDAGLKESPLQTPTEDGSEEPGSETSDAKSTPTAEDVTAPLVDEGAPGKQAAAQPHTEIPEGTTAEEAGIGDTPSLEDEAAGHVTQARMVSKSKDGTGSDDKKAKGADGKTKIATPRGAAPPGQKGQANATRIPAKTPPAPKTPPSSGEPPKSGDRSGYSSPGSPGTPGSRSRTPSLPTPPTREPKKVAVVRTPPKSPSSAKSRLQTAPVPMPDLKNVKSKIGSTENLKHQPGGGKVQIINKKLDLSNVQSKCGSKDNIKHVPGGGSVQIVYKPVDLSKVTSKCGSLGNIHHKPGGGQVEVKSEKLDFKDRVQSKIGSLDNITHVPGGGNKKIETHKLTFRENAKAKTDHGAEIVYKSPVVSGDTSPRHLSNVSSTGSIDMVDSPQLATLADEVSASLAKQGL
T1 sequence (P05067 672-713): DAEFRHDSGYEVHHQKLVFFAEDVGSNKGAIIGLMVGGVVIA

SMILES: COc1cc(Nc2nncc3cc(Cl)ccc23)cnc1-n1cnc(C)c1C [Compound 31, 6-chloro-N-(6-(4,5-dimethyl-1H-imidazol-1-yl)-5-methoxypyridin-3-yl)phthalazin-1-amine phosphoric acid salt]
- inhibition at 30 µM [1, 3]: < 30%
- IC50 [2, 4]: 33.7 µM

SMILES: C/C(=N\Nc1ncnc2cc(F)ccc12)c1ccc(-n2cnc(C)c2C)nc1 [Compound 21, (E)-4-(2-(1-(6-(4,5-dimethyl-1H-imidazol-1-yl)pyridin-3-yl)ethylidene)hydrazineyl)-7-fluoroquinazoline]
- IC50 ([1]; Abeta(1-42) oligomers): 9.5 µM
- IC50 [2, 5]: 80.9 µM

SMILES: Clc1ccc2c(Nc3ccc(-n4ccnc4)nc3)ncnc2c1 [Compound 41, N-(6-(1H-imidazol-1-yl)pyridin-3-yl)-7-chloroquinazolin-4-amine]
- IC50 ([1]; Abeta(1-42) oligomers): 72.4 µM
- IC50 [2, 5]: 14.7 µM

SMILES: Clc1ccc2c(N/N=C/c3ccc(-n4ccnc4)cc3)ccnc2c1 [Compound 38, 4-(2-(4-(1H-imidazol-1-yl)benzylidene)hydrazineyl)-7-chloroquinoline dihydrochloride]
- IC50 ([1]; Abeta(1-42) oligomers): 2.74 µM
- IC50 [2, 4]: 2.94 µM

SMILES: Fc1ccc2c(N/N=C/c3ccc(CN4CCOCC4)cc3)ccnc2c1 [Compound 6, (E)-4-(4-((2-(7-fluoroquinolin-4-yl)hydrazono)methyl)benzyl)morpholine]
- inhibition at 30 µM [1, 3]: > 30%
- IC50 [2, 4]: 2.27 µM

SMILES: CN(C)Cc1cc(Nc2ccnc3cc(Cl)ccc23)ccn1 [Compound 45, 7-chloro-N-(2-((dimethylamino)methyl)pyridin-4-yl)quinolin-4-amine]
- inhibition at 30 µM [1, 3]: < 30%
- inhibition at 30 µM ([2]; 30 μM compound, Tau, heparin-BSA): < 30%

SMILES: CC(=NNc1ccnc2cc(Cl)ccc12)c1ccc(-n2cnc(C)c2C)nc1 [Compound 22, 7-chloro-4-(2-(1-(6-(4,5-dimethyl-1H-imidazol-1-yl)pyridin-3-yl)ethylidene)hydrazineyl)quinoline]
- inhibition at 30 µM [1]: > 30%
- IC50 [2, 4]: 28.2 µM

SMILES: Cc1ncn(-c2ccc(Nc3ncnc4cc(Cl)ccc34)cn2)c1C [Compound 25, 7-chloro-N-(6-(4,5-dimethyl-1H-imidazol-1-yl)pyridin-3-yl)quinazolin-4-amine]
- IC50 ([1]; Abeta(1-42) oligomers): 9.9 µM
- inhibition at 30 µM [2]: < 30%

SMILES: Clc1ccc2c(N/N=C/c3ccc(-n4ccnc4)nc3)ccnc2c1 [Compound 14, (E)-4-(2-((6-(1H-imidazol-1-yl)pyridin-3-yl)methylene)hydrazineyl)-7-chloroquinoline hydrochloride]
- IC50 ([1]; Abeta(1-42) oligomers): 8.14 µM
- IC50 [2, 4]: 20.3 µM

SMILES: Fc1cc(/C=N/Nc2ccnc3cc(Cl)ccc23)ccc1-n1ccnc1 [Compound 35, (E)-7-chloro-4-(2-(3-fluoro-4-(1H-imidazol-1-yl)benzylidene)hydrazineyl)quinoline hydrochloride]
- IC50 ([1]; Abeta(1-42) oligomers): 15.4 µM
- IC50 [2, 4]: 41.3 µM

SMILES: C[n+]1ccn(-c2ccc(Nc3ncnc4cc(Cl)ccc34)cn2)c1 [Compound 43, 1-(5-((7-chloroquinazolin-4-yl)amino)pyridin-2-yl)-3-methyl-1H-imidazol-3-ium iodide phosphoric acid salt]
- inhibition at 30 µM [1, 3]: < 30%
- inhibition at 30 µM [2]: < 30%

SMILES: C/C(=N\Nc1ncnc2cc(Cl)ccc12)c1cccc(CN(C)C)c1 [Compound 29, 1-(3-(1-(2-(7-chloroquinazolin-4-yl)hydrazineylidene)ethyl)phenyl)—N,N-dimethylmethanamine]
- inhibition at 30 µM [1, 3]: > 30%
- IC50 [2, 4]: 32.4 µM

SMILES: Cc1ncn(-c2ccc(/C=N/Nc3ccnc4cc(Cl)ccc34)cc2)c1C [Compound 2, (E)-7-chloro-4-((E)-(4-(4,5-dimethyl-1H-imidazol-1-yl)benzylidene)hydrazono)-1,4-dihydroquinoline]
- IC50 ([1]; Abeta(1-42) oligomers): 30.7 µM
- IC50 [2, 4]: 4.42 µM

SMILES: Clc1ccc2c(Nc3ccc(-n4cncn4)nc3)ncnc2c1 [Compound 34, N-(6-(1H-1,2,4-triazol-1-yl)pyridin-3-yl)-7-chloroquinazolin-4-amine phosphoric acid salt]
- IC50 ([1]; Abeta(1-42) oligomers): 9.93 µM
- inhibition at 30 µM [2]: < 30%

SMILES: C/C(=N\Nc1ncnc2cc(Cl)ccc12)c1ccc(-n2cnc(C)c2C)nc1 [Compound 16, 7-chloro-4-(2-(1-(6-(4,5-dimethyl-1H-imidazol-1-yl)pyridin-3-yl)ethylidene)hydrazineyl)quinazoline phosphate]
- IC50 ([1]; Abeta(1-42) oligomers): 5.48 µM
- IC50 [2, 4]: 3.92 µM

SMILES: COc1cc2nccc(NN=Cc3ccc(-n4ccnc4)c(C)c3)c2cc1OC [Compound 11, 4-(2-(4-(1H-imidazol-1-yl)-3-methylbenzylidene)hydrazineyl)-6,7-dimethoxyquinoline hydrochloride]
- inhibition at 30 µM [1]: < 30%
- IC50 [2, 4]: 3.3 µM

SMILES: C[N+](C)(C)Cc1ccc(/C=N\Nc2ccnc3ccc(Cl)cc23)cc1 [Compound 4, (Z)-1-(4-((2-(6-chloroquinolin-4-yl)hydrazineylidene)methyl)phenyl)—N,N,N-trimethylmethanaminium iodide]
- IC50 ([1]; Abeta(1-42) oligomers): 42.7 µM
- IC50 [2, 4]: 29.2 µM

SMILES: COc1cc2nccc(N/N=C/c3ccc(-n4ccnc4)c(OC)c3)c2cc1OC [Compound 13, (E)-4-(2-(4-(1H-imidazol-1-yl)-3-methoxybenzylidene)hydrazineyl)-6,7-dimethoxyquinoline phosphate]
- inhibition at 30 µM [1]: < 30%
- inhibition at 30 µM [2]: < 30%

SMILES: CCN1CCN(c2ccc(Nc3ccnc4cc5ccccc5cc34)cc2)CC1 [Compound 39, N-(4-(4-ethylpiperazin-1-yl)phenyl)benzo[g]quinolin-4-amine]
- inhibition at 30 µM [1, 3]: < 30%
- IC50 [2, 4]: 13.2 µM

SMILES: C/C(=N\Nc1ncnc2cc(Cl)ccc12)c1ccc(-n2cc[n+](C)c2)nc1 [Compound 17, (E)-1-(5-(1-(2-(7-chloroquinazolin-4-yl)hydrazineylidene)ethyl)pyridin-2-yl)-3-methyl-1H-imidazol-3-ium iodide phosphoric acid salt]
- IC50 ([1]; Abeta(1-42) oligomers): 11.7 µM
- IC50 [2, 4]: 12.2 µM
